In ChEMBL document CHEMBL4346735, “Discovery and pharmacological evaluation of indole derivatives as potent and selective RORγt inverse agonist for multiple autoimmune conditions” (Bioorg Med Chem Lett, 2019):

Assays:
[1] = tested on: Mus musculus; experiment: Inhibition of anti-CD3-induced IL-17A level in Balb/c mouse plasma at 5 mg/kg, po treated prior to stimulation with anti-CD3 for 3 hrs relative to control; type: functional
[2] = target: T1, Nuclear receptor ROR-gamma (Homo sapiens, UniProt P51449); experiment: Inverse agonist activity at GST-tagged RORgammat LBD (unknown origin) using fluorescein-D22 co-activator peptide as substrate incubated for 1 hr by TR-FRET assay
T1 sequence (P51449 whole entry): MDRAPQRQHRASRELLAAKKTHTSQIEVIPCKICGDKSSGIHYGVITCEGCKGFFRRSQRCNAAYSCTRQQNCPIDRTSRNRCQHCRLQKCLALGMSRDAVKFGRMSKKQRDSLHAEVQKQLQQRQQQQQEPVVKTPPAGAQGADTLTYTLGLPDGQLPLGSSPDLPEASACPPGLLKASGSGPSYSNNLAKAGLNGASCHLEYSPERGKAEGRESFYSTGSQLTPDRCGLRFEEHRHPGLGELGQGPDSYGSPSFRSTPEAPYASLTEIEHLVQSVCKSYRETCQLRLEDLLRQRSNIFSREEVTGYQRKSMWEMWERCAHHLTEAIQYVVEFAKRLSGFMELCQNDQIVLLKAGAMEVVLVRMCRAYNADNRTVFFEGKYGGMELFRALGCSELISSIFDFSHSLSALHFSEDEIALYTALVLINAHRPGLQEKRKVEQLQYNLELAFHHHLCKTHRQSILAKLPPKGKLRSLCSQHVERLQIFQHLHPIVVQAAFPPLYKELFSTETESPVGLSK

[3] = Oral bioavailability in Balb/c mouse at 10 mg/kg administered via gavage by LC-MS/MS analysis; type: ADME, organism-based; details: in vivo
[4] = Drug metabolism in human pooled liver microsomes assessed as oxidation metabolic rate at 1 uM preincubated for 5 mins followed by NADPH addition after 30 mins by LC-MS/MS analysis; type: ADME, Microsome; details: 0.5 h
[5] = target: T1, Nuclear receptor ROR-gamma; experiment: Transactivation of recombinant GAL4-DBD fused RORgammat LBD (unknown origin) expressed in HEK293T cells incubated for 18 to 24 hrs by dual-Glo luciferase assay; type: cell-based
[6] = Metabolic stability in rat hepatocytes assessed as parent compound remaining after 30 mins; type: ADME, cell-based, Hepatocyte; details: read-out: Stability
[7] = AUC (0 to t) in Balb/c mouse at 3 mg/kg, iv administered as single dose by LC-MS/MS analysis; type: ADME, organism-based; details: in vivo
[8] = Drug metabolism in rat liver microsomes assessed as oxidation metabolic rate at 1 uM preincubated for 5 mins followed by NADPH addition after 30 mins by LC-MS/MS analysis; type: ADME, Microsome; details: 0.5 h
[9] = Drug metabolism in mouse liver microsomes assessed as oxidation metabolic rate at 1 uM preincubated for 5 mins followed by NADPH addition after 30 mins by LC-MS/MS analysis; type: ADME, Microsome; details: 0.5 h
[10] = Half life in Balb/c mouse at 3 mg/kg, iv administered as single dose by LC-MS/MS analysis; type: ADME, organism-based; details: in vivo
[11] = Clearance in Balb/c mouse at 3 mg/kg, iv administered as single dose by LC-MS/MS analysis; type: ADME, organism-based; details: in vivo

| SMILES | inhibition in vivo at 5 mg/kg [1] | IC50 [2] | bioavailability [3] | Drug metabolism [4] | IC50 [5] | remaining at 0.5 h [6] | AUC(0-t) [7] | Drug metabolism [8] | Drug metabolism [9] | half-life [10] | clearance [11] |
| --- | --- | --- | --- | --- | --- | --- | --- | --- | --- | --- | --- |
| C[C@@H]1C[C@H]2[C@@H]3CCC4=CC(=O)C=C[C@]4(C)[C@@]3(F)[C@@H](O)C[C@]2(C)[C@@]1(O)C(=O)CO [DEXAMETHASONE] | 51% |  |  |  |  |  |  |  |  |  |  |
| O=C(O)c1ccc(-n2nc(C(=O)c3c(Cl)cccc3Cl)c3ccccc32)cc1 |  | 3.8 nM | 29% | 0.07 nmol/min/mg | 29 nM | 17% | 5.9 µM·h | 0.18 nmol/min/mg | < 0.04 nmol/min/mg | 1.4 h | 19.6 mL/min/kg |
